Experimental data published in patent US4450269A, “Mono-5-substituted-3-chloro-4H-1,2,6-thiadiazin-4-one antifungal agents” (FMC Corporation, priority 1980, dated 1984).
Where two headings read alike, the source gives them in different places.

How the values were obtained:
[1] = test system: Rhizoctonia solani; experiment: Mycelial growth test; type: cell-based; conditions: Rhizoctonia solani, 72 h, RS, read-out: Percent Fungus Growth Inhibition
Source text: | RS = Rhizoctonia solani

[2] = test system: Helminthosporium oryzae; experiment: Mycelial growth test; conditions: Bipolaris oryzae, 72 h
[3] = test system: Fusarium solani; experiment: Mycelial growth test; type: cell-based; conditions: Fusarium solani, 72 h; for inhibition at 5 ppm / inhibition at 10 ppm / inhibition at 20 ppm: PS, 72 hours, read-out: Percent Fungus Growth Inhibition; for inhibition at 40 ppm: read-out: Percent Fungus Growth Inhibition, PS, 40 ppm, 72 hours
[4] = test system: Pythium ultimum; experiment: Mycelial growth test; type: cell-based; conditions: Globisporangium ultimum, 72 h, PU, read-out: Percent Fungus Growth Inhibition
[5] = test system: Pyricularia oryzae; type: cell-based; conditions: PO, 48 hours
[6] = test system: Cladosporium cucumerinum; experiment: Spore germination test; type: cell-based; conditions: CC, 48 hours
Procedure: CC = Cladosporium cucumerinum
(§1) The test chemical was dissolved or suspended in acetone in an amount such that 0.8 ml of the resulting suspension or solution, mixed with 40 ml water agar produced a water agar solution containing 40, 10, 2.5 and 1 ppm of test chemical. The resulting agar solution, at 50° C., was then divided equally between two sterile petri dishes, each having four separated quadrants, and allowed to solidify. […] quadrants of each dish were flooded with 0.1 ml of a spore suspension in sterile water. Spores of two pathogens, Erysiphe polygoni and Uromyes phaseoli, from infected plant leaves, were brushed on the remaining two quadrants. The tests were then incubated 48 hours, at 24° C.
(§2) Readings were then taken and the percentage of germinated spores calculated. From this percentage, a spore germination rating was assigned as follows: […]

[7] = test system: Alternaria solani; experiment: Spore germination test; type: cell-based; conditions: AS, 48 hours
Procedure: as §1, §2

[8] = test system: Uromyces phaseoli; experiment: Spore germination test; type: cell-based; conditions: UP, 48 hours
Procedure: as §1, §2

[9] = test system: Erysiphe polygoni; experiment: Spore germination test; type: cell-based; conditions: EP, 48 hours
Procedure: as §1, §2

[10] = test system: Botrytis cinerea; experiment: Spore germination test; type: cell-based; conditions: BC, 48 hours
Procedure: as §1, §2

[11] = test system: Pyricularia oryzae; experiment: whole plant or invertebrate; type: in vivo; conditions: Pyricularia oryzae, foliar, 24 h, read-out: Percent Disease Control, curative, rice blast, 150 ppm, 24 hours after inoculation
[12] = test system: Sclerotinia fructicola; experiment: Mycelial growth test; type: cell-based; conditions: Sclerotinia, 72 h, SF, read-out: Percent Fungus Growth Inhibition
Source text: | SF = Sclerotinia fructicola

[13] = test system: Erysiphe polygoni; experiment: whole plant or invertebrate; conditions: foliar, 24 h, read-out: Percent Disease Control, curative, bean powdery mildew
[14] = test system: Phytophthora infestans; type: cell-based; conditions: PI, 48 hours
[15] = test system: Uromyces phaseoli; experiment: whole plant or invertebrate; conditions: foliar, 24 h, read-out: Percent Disease Control, curative, bean rust
[16] = test system: Uromyces phaseoli; experiment: whole plant or invertebrate; conditions: foliar, read-out: Percent Disease Control, foliar, bean rust
[17] = test system: Cladosporium cucumerinum; experiment: Mycelial growth test; type: cell-based; conditions: Cladosporium cucumerinum, CC, read-out: Percent Fungus Growth Inhibition
Source text: |CC = Cladosporium cucumerinum

[18] = test system: Pyricularia oryzae; experiment: microbe, parasite or virus in culture; type: cell-based; conditions: Pyricularia oryzae, 72 h
[19] = test system: Alternaria solani; experiment: Mycelial growth test; type: cell-based; conditions: Alternaria solani, 72 h, AS, read-out: Percent Fungus Growth Inhibition
[20] = test system: Phytophthora infestans; experiment: whole plant or invertebrate; type: in vivo; conditions: Phytophthora infestans, in Solanum lycopersicum, foliar, read-out: Percent Disease Control, foliar, tomato late blight, 150 ppm, protective
[21] = read-out: Percent Fungus Growth Inhibition

O=C1C2CC=CCC2C(=O)N1SC(Cl)(Cl)Cl (stereo not drawn) [Captan, reference compound]
inhibition at 5 ppm [1]: 0%
inhibition at 10 ppm [1]: 0%
inhibition at 20 ppm [1]: 0%
inhibition at 40 ppm [1]: 0%
inhibition at 5 ppm [2, 21]: 18%
inhibition at 10 ppm [2, 21]: 46%
inhibition at 20 ppm [2, 21]: 62%
inhibition at 40 ppm [2, 21]: 65%
inhibition at 5 ppm [3]: 19%
inhibition at 10 ppm [3]: 33%
inhibition at 20 ppm [3]: 48%
inhibition at 40 ppm [3]: 44%
inhibition at 5 ppm [4]: 0%
inhibition at 10 ppm [4]: 0%
inhibition at 20 ppm [4]: 0%
inhibition at 40 ppm [4]: 0%

O=C(OCc1ccccc1)Oc1ccc(Oc2nsnc(Cl)c2=O)cc1 [Compound 38, 3-chloro-5-[4-(phenylmethoxycarbonyloxy)phenoxyl]-4H-1,2,6-thiadiazin-4-one]
Spore Germination Rating ([5]; 1.0 ppm): 4 (80-100)
Spore Germination Rating ([5]; 2.5 ppm): 3 (60-80)
Spore Germination Rating ([5]; 10 ppm): 2 (40-60)
Spore Germination Rating ([5]; 40 ppm): 2 (40-60)
Spore Germination Rating ([6]; 1.0 ppm): 4 (80-100)
Spore Germination Rating ([6]; 2.5 ppm): 4 (80-100)
Spore Germination Rating ([6]; 10 ppm): 3 (60-80)
Spore Germination Rating ([6]; 40 ppm): 3 (60-80)
Spore Germination Rating ([7]; 1.0 ppm): 4 (80-100)
Spore Germination Rating ([7]; 2.5 ppm): 4 (80-100)
Spore Germination Rating ([7]; 10 ppm): 4 (80-100)
Spore Germination Rating ([7]; 40 ppm): 4 (80-100)
Spore Germination Rating ([8]; 1.0 ppm): 4 (80-100)
Spore Germination Rating ([8]; 2.5 ppm): 4 (80-100)
Spore Germination Rating ([8]; 10 ppm): 3 (60-80)
Spore Germination Rating ([8]; 40 ppm): 2 (40-60)
Spore Germination Rating ([9]; 1.0 ppm): 4 (80-100)
Spore Germination Rating ([9]; 2.5 ppm): 4 (80-100)
Spore Germination Rating ([9]; 10 ppm): 4 (80-100)
Spore Germination Rating ([9]; 40 ppm): 4 (80-100)
Spore Germination Rating ([10]; 1.0 ppm): 4 (80-100)
Spore Germination Rating ([10]; 2.5 ppm): 4 (80-100)
Spore Germination Rating ([10]; 10 ppm): 4 (80-100)
Spore Germination Rating ([10]; 40 ppm): 3 (60-80)
inhibition at 5 ppm [1]: 0%
inhibition at 10 ppm [1]: 0%
inhibition at 20 ppm [1]: 7%
inhibition at 40 ppm [1]: 33%
pest or weed control at 150 ppm [11]: 0%
inhibition at 5 ppm ([12]; 5 ppm): 0%
inhibition at 10 ppm ([12]; 10 ppm): 0%
inhibition at 20 ppm ([12]; 20 ppm): 0%
inhibition at 40 ppm ([12]; 40 ppm): 8%
inhibition at 5 ppm ([2]; read-out: Percent Fungus Growth Inhibition, HO, 5 ppm, 72 hours): 56%
inhibition at 10 ppm ([2]; read-out: Percent Fungus Growth Inhibition, HO, 10 ppm, 72 hours): 39%
inhibition at 20 ppm ([2]; read-out: Percent Fungus Growth Inhibition, HO, 20 ppm, 72 hours): 89%
inhibition at 40 ppm ([2]; read-out: Percent Fungus Growth Inhibition, HO, 40 ppm, 72 hours): 100%
pest or weed control at 150 ppm [13]: 0%
Spore Germination Rating ([14]; 1.0 ppm): 4 (80-100)
Spore Germination Rating ([14]; 2.5 ppm): 4 (80-100)
Spore Germination Rating ([14]; 10 ppm): 4 (80-100)
Spore Germination Rating ([14]; 40 ppm): 3 (60-80)
inhibition at 5 ppm [3]: 10%
inhibition at 10 ppm [3]: 20%
inhibition at 20 ppm [3]: 30%
inhibition at 40 ppm [3]: 35%
pest or weed control at 150 ppm [15]: 100%
pest or weed control at 150 ppm [16]: 0%
inhibition at 5 ppm [4]: 0%
inhibition at 10 ppm [4]: 0%
inhibition at 20 ppm [4]: 0%
inhibition at 40 ppm [4]: 0%
inhibition at 5 ppm ([17]; 72 h, 5 ppm): 0%
inhibition at 10 ppm ([17]; 72 h, 10 ppm): 0%
inhibition at 40 ppm ([17]; 72 h, 40 ppm): 26%
inhibition at 20 ppm ([17]; CC20, 72 h, 20 ppm): 0%
inhibition at 5 ppm ([18]; read-out: Percent Fungus Growth Inhibition, PO, 5 ppm, 72 hours): 8%
inhibition at 10 ppm ([18]; read-out: Percent Fungus Growth Inhibition, PO, 10 ppm, 72 hours): 15%
inhibition at 20 ppm ([18]; read-out: Percent Fungus Growth Inhibition, PO, 20 ppm, 72 hours): 23%
inhibition at 40 ppm ([18]; read-out: Percent Fungus Growth Inhibition, PO, 40 ppm, 72 hours): 46%
inhibition at 5 ppm ([19]; 5 ppm): 5%
inhibition at 10 ppm ([19]; 10 ppm): 48%
inhibition at 20 ppm ([19]; 20 ppm): 33%
inhibition at 40 ppm ([19]; 40 ppm): 90%
pest or weed control at 150 ppm [20]: 0%
